In patent US20100035904A1, “PHE[…]; METHODS OF MAKING; AND METHODS OF USE THEREOF” (priority 2008, published 2010):
Structures can show the parent of a compound that is named as a salt.

Key:
[1] = Moisture sorption experiments; assay type: physicochemical; conditions: for hygroscopicity (moisture sorption analysis): 0-90% RH; for XRPD pattern of material following the moisture sorption experiment: after sorption/desorption and drying
Method: Moisture sorption experiments are carried out on about 10 milligrams (mg) of sample in a Pyrex bulb by first equilibrating the sample at 25° C./40% relative humidity (RH) until an equilibrium weight is reached. The sample is then subjected to an isothermal (25° C.) adsorption scan from 40 to 90% RH in steps of 10% RH. The sample is allowed to equilibrate to either an asymptotic weight or a maximum of four hours for each relative humidity. A desorption scan from 90 to 0% RH (at 25° C.) is then run in steps of −10% again allowing a maximum of four hours for equilibration or an asymptotic weight. Following desorption, an adsorption scan is performed from 0% RH to the initial 40% RH. The sample is then dried for one hour at 80° C. to obtain the dry weight.

[2] = background statement; cited from earlier work
[3] = Stability of the salt in seven day toluene slurry (XRPD); assay type: physicochemical; conditions: ambient temperature, seven days
Method: Stability of the salt is evaluated using a seven day toluene slurry. Each salt (about 10-20 mg) is slurried in 250 microliters of toluene at ambient temperature for seven days in a 4 ml vial. After seven days, each sample is filtered and dried overnight at ambient temperature under vacuum. The samples are then analyzed by XRPD.

[4] = Analysis of residual solids from water slurry (XRPD, 1H-NMR) for form conversion; assay type: physicochemical; conditions: water slurry overnight, ambient temperature

Row | Compound | hygroscopicity (moisture sorption analysis) ([1]; 25° C.) | water adsorbed at 90% RH ([1]; 25° C.) | XRPD pattern of material following the moisture sorption experiment [1] | hygroscopicity / stability in humid environments [2] | XRPD of material following seven day toluene slurry [3] | stability of the salt in water slurry (conclusion) [4] | water adsorbed between 10-60% RH ([1]; 25° C., 10-60% RH) | water content at which the desorption curve stabilizes ([1]; desorption, 40-5% RH)
1 | CCC1(c2ccccc2)C(=O)NC(=O)NC1=O [Phenobarbital free form, 5-ethyl-5-phenyl-2,4,6(1H,3H,5H)-pyrimidinetrione, reference compound] | nonhygroscopic | 0.1 wt % | consistent with the initial phenobarbital starting material |  |  |  |  | 
2 | CCC1(c2ccccc2)C(=O)NC(=O)NC1=O [Phenobarbital sodium] |  |  |  | hygroscopic and degrades when exposed to humid environments |  |  |  | 
3 | CCC1(c2ccccc2)C(=O)[N-]C(=O)NC1=O.C[N+](C)(C)CCO [phenobarbital choline salt, phenobarbital choline] | hygroscopic | 23 wt % | consistent with the initial material |  | consistent with the initial material | remained stable |  | 
4 | CCC1(c2ccccc2)C(=O)NC(=O)NC1=O [phenobarbital potassium salt, phenobarbital potassium] |  |  |  |  |  | potential dissociation |  | 
5 | CCC1(c2ccccc2)C(=O)NC(=O)NC1=O [phenobarbital sodium salt, phenobarbital sodium] | hygroscopic | approximately 34 wt % | shows differences in comparison to the diffraction pattern of the initial material |  | amorphous |  | approximately 2 wt % | approximately 12 wt %
6 | phenobarbital benzathine | nonhygroscopic | 1.0 wt % | consistent with the initial material |  |  | remained stable |  | 
7 | phenobarbital betaine [phenobarbital betaine salt] | hygroscopic | 28.1 wt % | consistent with the initial material |  | consistent with the initial material | salt dissociation |  | 
